The source of these data is paper PMC9450014, “The evaluation of ADME and pharmacokinetic properties of decoquinate derivatives for the treatment of malaria” (Frontiers in Pharmacology, 2022).

pIC50: −log10 of the molar value. Read-outs that look alike come from different tables or passages of the source.

In series [1] the test system is multidrug resistant Pf K1. Also noted: method as in Beteck et al., 2018. The settings on record: ref Beteck et al., 2018; read-out: IC50 against multidrug resistant Pf K1; cited from earlier work.
Series [2] is described as follows: Plasma protein binding (ultracentrifugation). The settings on record: pooled plasma; human plasma; read-out: Bound to plasma proteins (converted). Format: in vitro ADME. As for the experimental part: Plasma protein binding was determined in pooled human plasma using an ultracentrifugation method. Stock solutions of test compounds were diluted in phosphate buffer and spiked into plasma in deep well 96-well plates. An aliquot of each compound was immediately precipitated with ice cold acetonitrile containing the internal standard carbamazepine (0.1 μM). These served as total concentration samples. After incubation in a water bath (37°C for 1 h), samples were transferred to ultracentrifuge tubes in duplicate and centrifuged for 4 h at 37°C and 30,000 g (Optima L-80XP, Beckman). Following centrifugation, the supernatant was transferred to the plate containing the total concentration samples and precipitated with ice cold acetonitrile containing the internal standard. Samples were analysed by LC-MS/MS (Shimadzu HPLC coupled with an AB Sciex 3200 Q TRAP MS). Non-specific binding in mouse liver microsomes (MLM) and human liver microsomes (HLM) were also determined with the ultracentrifugation method. Stock solutions of compounds (10 mM) were added in duplicate to microsome solution (0.5 mg/mL) in phosphate buffer (pH 7.4) to obtain a final drug concentration of 1 μM. The same method as for plasma protein binding was utilized. Analyte concentrations of all compounds were determined via LC-MS/MS (reverse phase Gemini NX-C18 column and Shimadzu HPLC coupled with an AB Sciex 3200 Q TRAP MS).

Series [3] in a line: Kinetic solubility in PBS (HPLC-DAD). Format: physicochemical. The settings on record: phosphate buffer saline (PBS); for solubility kinetic at 2 h: aqueous buffer, kinetic from dmso stock. The procedure:
Stock concentrations of test samples (10 mM) were prepared in DMSO and diluted to a final concentration of […] in phosphate buffer saline (PBS) solutions at pH 2, 6.5, and 7.4 in flat-bottomed 96-well plates. A three-point calibration curve of each control and test compound was prepared from stock solutions in DMSO. Plates were agitated on an orbital shaker at room temperature for 2 h at 200 rpm and subsequently analysed using a reverse phase Gemini NX-C18 column (5 μM, 2.1 mm × 50 mm) with an Agilent 1,200 Rapid Resolution HPLC and diode array detection.

Series [4] in a line: Metabolic stability in mouse liver microsomes. The series is classed as in vitro ADME. As for the experimental part:
A 5-point metabolic stability assay in human and mouse liver microsomes were performed in duplicate in 96-well plates. Stock solution of RMB005, −059 and 060 prepared in DMSO were individually incubated at 37°C in mouse and pooled human liver microsomes (0.4 mg/mL). An aliquot was removed at 0 min and quenched with ice cold acetonitrile containing the internal standard carbamazepine (0.1 μM). The cofactor NADPH was added, and the reactions were subsequently stopped at time points 5, 10, 30, and 60 min by removal of an aliquot and quenching with ice cold acetonitrile containing the internal standard. The supernatant of all samples were analysed via LC-MS/MS analysis (reverse phase Gemini NX-C18 column and Shimadzu HPLC and AB Sciex 3200 Q TRAP MS). Calculation of in vitro t1/2, intrinsic clearance rate (CLint) and predicted in vivo clearance (CLH) was carried out using the following equations ([Obach 1999]). CLintClint= 0.693/t1/2(min) ×Volume of incubation (μL)/microsomal protein (μg) Where t1/2 is calculated in minutes.
Predicted in vivo CLH CLH=Q × fu(plasma)×CLint/fu(mic)/Q+ fu(plasma)× CLint/fu(mic) Where Q is the hepatic blood flow of mouse (90 mL/min/kg) or human (20.7 mL/min/kg). Fu(plasma) is the unbound drug fraction in the plasma and fu(mic) is the unbound fraction in the microsomes.
The equation below was used in the case of RMB059 and -060, where protein-binding data were not available. CLH=Q × CLint/Q+ CLint

What is called pIC50 is the negative decadic logarithm of the IC50, by convention in mol/L. The term kinetic solubility denotes solubility judged after dilution from a stock solution rather than from solid. A word on the solubility: it is the dissolved amount per volume that the medium holds. In general, half-life refers to the time in which the quantity being followed falls by half. `CCCCCCCCCCOc1cc2c(=O)c(C(=O)NCCOCCO)c[nH]c2cc1OCC` [RMB005]: the pIC50 in series [1] was 7.19. For the same compound, the fraction unbound at 1 h in series [2] is 0.08. Besides, the solubility (kinetic) at 2 h in series [3] (PBS pH 2, read-out: Kinetic solubility pH 2) is less than 5 µM; in series [3] (PBS pH 6.5, read-out: Kinetic solubility pH 6.5), less than 5 µM; in series [3] (PBS pH 7.4, read-out: Kinetic solubility pH 7.4), less than 5 µM. The compound further returned a solubility at 2 h in series [3] (all pH levels tested (pH 2, 6.5, 7.4)) of less than 5 µM. Also, the half-life in series [4] (mouse liver microsomes, NADPH, read-out: Degradation half-life MLM) was determined as 1.22 h. In series [4] (mouse, liver microsomes, calculated from t1/2 in MLM, read-out: In vitro CLint MLM), the CLint scaled is 104 mL/min/kg. Moreover, the “Estimated in vivo CLH MLM” value in series [4] (protein binding data included) was 81.2 mL/min/kg.
